Measured values reported in patent US20160115540A1, “PRODRUGS AND DRUGS” (Biogen MA Inc., priority 2013, published 2016).
Counter-ions that a name gives are not always drawn.

Test system: jejunum
Experiment: Transcriptional profiling on Affymetrix GeneChips, single dose, naïve mice: jejunum
Format: in vivo, C57BL/6 mice
Conditions: for Number of differentially expressed genes identified: Jenjunum: Naïve, Single Dose, 100 mpk, vs Vehicle
Description: Treated mice were sacrificed at 2, 7, or 12 hours. Tissues (liver, spleen, kidney, jejunum, cortex, hippocampus, striatum and whole blood) were collected and analyzed by transcriptional profiling on mouse Affymetrix GeneChips.
Tissues (liver, spleen, kidney, jejunum, cortex, hippocampus, striatum and whole blood) were collected and analyzed by transcriptional profiling on mouse Affymetrix GeneChips.
Animals were exposed to CO2 and whole blood collected via cardiac puncture. Two 100 μl aliquots of whole blood were collected in 1.5 mL microcentrifuge tubes and snap frozen in liquid nitrogen. Peripheral (liver, spleen, kidney and jejunum) and CNS brain (cerebellum, hippocampus, striatum and cortex) tissues were harvested and snap frozen in liquid nitrogen, with special care taken to collect tissues of similar size and from the same location. All samples were stored at −80° C. until RNA extraction was conducted.
For RNA preparation, frozen tissues were placed in 2 mL RNAse-free 96-well blocks with 1.5 mL QIAzol Lysis Reagent (QIAgen) and a 3.2 mm stainless steel bead (BioSpec Products, Bartlesville, Okla.). Tissues were disrupted for four cycles of 45 seconds in a Mini-Beadbeater (Biospec Products). RNA was extracted in chloroform and the aqueous phase was mixed with an equal volume of 70% ethanol. Extracted RNA was applied to RNeasy 96 plates and purified by the spin method according to the manufacturer's protocol (RNeasy 96 Universal Tissue Protocol, QIAgen, Hilden Germany).
Automated sample amplifications and biotin labelings were carried out using the NuGEN Ovation RNA Amplification system V2 (Cat #3100), Ovation WB reagent (Cat #1300) and Encore Biotin module (Cat #4200) (NuGEN Technologies, Inc, San Carlos, Calif.) according to manufacturer's recommendations using an Arrayplex automated liquid handler (Beckman Coulter, Indianapolis, Ind.). Two micrograms of biotin labeled sscDNA probe were hybridized to Affymetrix GeneChip Affymetrix HT_MG-430_PM plate arrays with modified conditions as described in Allaire et al. Washing and staining of the hybridized arrays were completed as described in the GeneChip Expression analysis technical manual for HT plate arrays using the Genechip® Array Station (Affymetrix, Santa Clara, Calif.) with modifications as described in Allaire et al. The processed GeneChip® plate arrays were scanned using GeneTitan scanner (Affymetrix, Santa Clara, Calif.).
Affymetrix scans were subject to quality control (QC) measures. These tests included a visual inspection of the distribution of raw signal intensities and an assessment of RNA degradation, relative log expression (RLE), and normalized unsealed standard error (NUSE). All sample scans that passed these QC metrics were included in the analysis.
All CEL files were subjected to GC-content-based Robust Multi-array Average (GCRMA) normalization (version 2.20.0) (Irizarry R A, et al. Nucleic Acids Res 2003; 31:e15; Li C, et al. Genome Biol 2001; 2:[…]0032). Expression levels were log (base 2) transformed.
All calculations and analyses were carried out using R (version 2.11.1) and Bioconductor computational tools (Gentleman R. Springer Science+Business Media 2005).

[1] = jejunum, 2 hr after single 100 mg/kg oral dose
[2] = jejunum, 7 hr after single 100 mg/kg oral dose
[3] = jejunum, 12 hr after single 100 mg/kg oral dose

COC(=O)/C=C/C(=O)O [MMF, monomethyl fumarate]
Gstm7 (1419072_PM_at) differential expression (Jejunum, 7 hr): 1.97 | Htatip2 (1451814_PM_a_at) differential expression (Jejunum, 7 hr): 1.68 | Ifit1 (1450783_PM_at) differential expression (Jejunum, 7 hr): −1.95 | Matn2 (1419442_PM_at) differential expression (Jejunum, 7 hr): 1.59 | Me1 (1416632_PM_at) differential expression (Jejunum, 7 hr): 2.01 | Nqo1 (1423627_PM_at) differential expression (Jejunum, 7 hr): 2.63 | Pgd (1423706_PM_a_at) differential expression (Jejunum, 7 hr): 1.55 | Pgm2 (1437240_PM_at) differential expression (Jejunum, 7 hr): 1.54 | Pir (1429001_PM_at) differential expression (Jejunum, 7 hr): 5.12 | Prss8 (1418320_PM_at) differential expression (Jejunum, 7 hr): 1.75 | Rsad2 (1436058_PM_at) differential expression (Jejunum, 7 hr): −1.81 | Rtp4 (1418580_PM_at) differential expression (Jejunum, 7 hr): −1.61 | Setd4 (1435405_PM_at) differential expression (Jejunum, 7 hr): 2.27 | Slc5a4b (1422757_PM_at) differential expression (Jejunum, 7 hr): 1.79 | Slc35e3 (1428805_PM_at) differential expression (Jejunum, 7 hr): 1.67 | Txnrd1 (1424487_PM_x_at) differential expression (Jejunum, 7 hr): 2.07 | Ugt2b5 (1419622_PM_at) differential expression (Jejunum, 7 hr): 4.50 | Ugt2b36 (1455595_PM_at) differential expression (Jejunum, 7 hr): 2.50 | Abcc3 (1428988_PM_at) differential expression (Jejunum, 12 hr): 2.10 | Acsm5 (1437662_PM_at) differential expression (Jejunum, 12 hr): 1.95 | Akr1c12 (1422000_PM_at) differential expression (Jejunum, 12 hr): 1.52 | Akr1c12 /// Akr1c13 (1450455_PM_s_at) differential expression (Jejunum, 12 hr): 1.76 | Akr1c13 (1418672_PM_at) differential expression (Jejunum, 12 hr): 2.01 | Aldh1a7 (1418601_PM_at) differential expression (Jejunum, 12 hr): 1.74 | Apob (1457554_PM_at) differential expression (Jejunum, 12 hr): −1.54 | Blvrb (1451386_PM_at) differential expression (Jejunum, 12 hr): 1.54 | Ces1e (1419510_PM_at) differential expression (Jejunum, 12 hr): 2.77 | Dio1 (1417991_PM_at) differential expression (Jejunum, 12 hr): −1.51 | Ephx1 (1422438_PM_at) differential expression (Jejunum, 12 hr): 2.17 | Fst (1434458_PM_at) differential expression (Jejunum, 12 hr): 1.94 | G6pd2 /// G6pdx (1422327_PM_s_at) differential expression (Jejunum, 12 hr): 1.83 | Gm3776 /// Gsta1 /// Gsta2 (1421041_PM_s_at) differential expression (Jejunum, 12 hr): 2.09 | Gpx2 (1449279_PM_at) differential expression (Jejunum, 12 hr): 1.54 | Gsr (1421816_PM_at) differential expression (Jejunum, 12 hr): 2.67 | Gss (1441931_PM_x_at) differential expression (Jejunum, 12 hr): 1.55 | Gsta3 (1423436_PM_at) differential expression (Jejunum, 12 hr): 10.80 | Gsta4 (1416368_PM_at) differential expression (Jejunum, 12 hr): 2.66 | Gstm1 (1416416_PM_x_at) differential expression (Jejunum, 12 hr): 3.70 | Gstm2 (1416411_PM_at) differential expression (Jejunum, 12 hr): 2.20 | Gstm4 (1424835_PM_at) differential expression (Jejunum, 12 hr): 5.43 | Gstm6 (1422072_PM_a_at) differential expression (Jejunum, 12 hr): 2.19 | Kif1b (1451642_PM_at) differential expression (Jejunum, 12 hr): −1.51 | Nqo1 (1423627_PM_at) differential expression (Jejunum, 12 hr): 2.34 | Pir (1429001_PM_at) differential expression (Jejunum, 12 hr): 4.19 | Setd4 (1435405_PM_at) differential expression (Jejunum, 12 hr): 1.60 | Slc5a4b (1422757_PM_at) differential expression (Jejunum, 12 hr): 2.16 | Ugt2b5 (1419622_PM_at) differential expression (Jejunum, 12 hr): 5.00 | Ugt2b36 (1455595_PM_at) differential expression (Jejunum, 12 hr): 3.03 | Number of differentially expressed genes identified: Jenjunum (2 h after last dosing): 67 | Number of differentially expressed genes identified: Jenjunum (7 h after last dosing): 74 | Number of differentially expressed genes identified: Jenjunum (12 h after last dosing): 45 | 6-Sep (septin 6) mRNA fold change vs vehicle [1]: 1.56 | Bmp2 mRNA fold change vs vehicle [1]: −1.55 | Figf mRNA fold change vs vehicle [1]: 1.63 | Gabarapl1 mRNA fold change vs vehicle [1]: 1.52 | Hfe mRNA fold change vs vehicle [1]: 1.73 | Hmox1 mRNA fold change vs vehicle [1]: 1.81 | Lpin2 mRNA fold change vs vehicle [1]: 1.61 | Lrp8 mRNA fold change vs vehicle [1]: 2.23 | Prr5l mRNA fold change vs vehicle [1]: −1.64 | Slc2a1 mRNA fold change vs vehicle [1]: 1.68 | Slc48a1 mRNA fold change vs vehicle [1]: 1.62 | Slfn2 mRNA fold change vs vehicle [1]: −1.82 | Sos1 mRNA fold change vs vehicle [1]: −1.57 | St3gal6 mRNA fold change vs vehicle [1]: 1.52 | Tkt mRNA fold change vs vehicle [1]: 1.73 | Tnfaip3 mRNA fold change vs vehicle [1]: −1.67 | Abcc2 mRNA fold change vs vehicle [2]: 1.51 | Asns mRNA fold change vs vehicle [2]: 1.60 | Capn13 mRNA fold change vs vehicle [2]: −1.75 | Enkur mRNA fold change vs vehicle [2]: −1.56 | Fam162a mRNA fold change vs vehicle [2]: 1.67 | Gm14446 mRNA fold change vs vehicle [2]: −1.65 | Gstm7 mRNA fold change vs vehicle [2]: 1.97 | Ifit1 mRNA fold change vs vehicle [2]: −1.95 | Matn2 mRNA fold change vs vehicle [2]: 1.59 | Me1 mRNA fold change vs vehicle [2]: 2.01 | Pgd mRNA fold change vs vehicle [2]: 1.55 | Rsad2 mRNA fold change vs vehicle [2]: −1.81 | Rtp4 mRNA fold change vs vehicle [2]: −1.61 | Akr1c12 mRNA fold change vs vehicle [3]: 1.52 | Apob mRNA fold change vs vehicle [3]: −1.54 | Dio1 mRNA fold change vs vehicle [3]: −1.51 | Ephx1 mRNA fold change vs vehicle [3]: 2.17 | Fst mRNA fold change vs vehicle [3]: 1.94 | Kif1b mRNA fold change vs vehicle [3]: −1.51
